These results are taken from patent publication US20080286215A1, “Method of Preventing Oral Staining” (priority 2005, published 2008).

Structures are written as SMILES. Like-named read-outs stand apart in the source and are kept apart here.

Series [1] is described as follows: seven-day twice-daily mouthwash swilling, staining of teeth and tongue. It counts as in vivo. To be noted: 0.2% mouthwash swilled twice daily for seven days. Here is the method:
FIG. 1 panel B illustrates staining of the teeth caused when contacted over a seven-day period with Chlorhexidine 0.2% twice daily for one minute (panel A is a control showing seven days rinsing with Delmopinol 0.2% twice daily 10 ml for one minute);
FIG. 2 panel B illustrates staining of the tongue when contacted over a seven day period with Chlorhexidine 0.2% twice daily for one minute (panel A is a control showing seven days rinsing with Delmopinol 0.2% twice daily 10 ml for one minute); and
A subject swilled their mouth twice daily with a 0.2% chlorhexidine mouthwash for seven days.
As a separate control, the subject swilled their mouth twice daily with a 0.2% delmopinol mouthwash for seven days.

Series [2] in a line: removal of chlorhexidine staining by a single one-minute brushing of the teeth. Type of series: in vivo. To be noted: subject with staining after seven days of chlorhexidine, brushed once, toothbrush soaked in 0.2% mouthwash. An excerpt:
FIG. 3 illustrates the removal of Chlorhexidine stains seen in FIG. 1(B) by brushing the teeth for one minute with a toothbrush that has been soaked in 0.2% delmopinol. The subject with chlorhexidine staining (after the seven day usage of chlorhexidine) brushed their teeth once, for one minute, using a toothbrush soaked in a 0.2% delmopinol mouthwash.

The conditions of series [3]: prolonged use, some subjects, noticed by dentists in some studies; cited from earlier work.

In the case of `[H]/N=C(\N/C(=N/[H])NCCCCCCNC(=N)NC(=N)Nc1ccc(Cl)cc1)Nc1ccc(Cl)cc1` [chlorhexidine, reference compound], in series [1], the “staining of the teeth” value is “characteristic staining of the teeth” and the “staining of the tongue” value is “the tongue was also stained”.

With `CCCC(CCC)CCCC1COCCN1CCO` (stereo not drawn) [delmopinol, 3-(4-propyl-heptyl)-4-(2-hydroxyethyl)morpholine], in series [1], the “staining of the teeth” value was “No staining was observed” and the “staining of the tongue” value is “No staining was observed”. Moreover, in series [2], the “removal of chlorhexidine staining of the teeth” value is on record as “removed the staining of the teeth”. In addition, the “staining of the teeth” value in series [3] is reported as “mild staining of the teeth”.
